Drawing on PubChem BioAssay AID1259411 (Chemical Carcinogenesis Research Information System (CCRIS), 2018), this text covers carcinogen call for seven compounds.

The source made the active and inactive calls. The rule behind the calls is not given here.

For the data set, the system named is rodent carcinogenicity bioassays, tumor incidence. The data set can be described thus: CCRIS carcinogenicity studies. From the text: The CCRIS database contains chemical records with carcinogenicity, mutagenicity, tumor promotion, and tumor inhibition test results. It was developed by the National Cancer Institute (NCI). Data are derived from studies cited in primary journals, current awareness tools, NCI reports, and other sources. Test results have been reviewed by experts in carcinogenesis and mutagenesis.
CCRIS provides historical information from the years 1985 - 2011. It is no longer updated.
This is an archive assay for CCRIS carcinogenicity studies.

Consider `O=C(O)COc1ccc(Cl)cc1Cl`, for which the carcinogen call was “inactive; negative” (Species: MOUSE, Strain/Sex: B6C3F1/FEMALE, Route: ORAL, Dose: 0, 5, 150, 300 MG/KG BW DAILY FOR 2 YR (STUDY DURATION: 2 YR), Dose: 0, 5, 150, 300 MG/KG BW DAILY FOR 2 YR (STUDY DURATION: 2 YR)); “inactive; negative” (Species: MOUSE, Strain/Sex: B6C3F1/MALE, Route: ORAL, Dose: 0, 5, 62.5, 125 MG/KG BW DAILY FOR 2 YR (STUDY DURATION: 2 YR), Dose: 0, 5, 62.5, 125 MG/KG BW DAILY FOR 2 YR (STUDY DURATION: 2 YR)); “inactive; negative” (Species: RAT, Strain/Sex: F344/FEMALE, Route: ORAL, Dose: 0, 5, 75, 150 MG/KG BW DAILY FOR 2 YR (STUDY DURATION: 2 YR), Dose: 0, 5, 75, 150 MG/KG BW DAILY FOR 2 YR (STUDY DURATION: 2 YR)); “inactive; negative” (Species: RAT, Strain/Sex: F344/MALE, Route: ORAL, Dose: 0, 5, 75, 150 MG/KG BW DAILY FOR 2 YR (STUDY DURATION: 2 YR), Dose: 0, 5, 75, 150 MG/KG BW DAILY FOR 2 YR (STUDY DURATION: 2 YR)).

Consider `CC1=C(C(=O)OCCN(Cc2ccccc2)c2ccccc2)C(c2cccc([N+](=O)[O-])c2)C(P2(=O)OCC(C)(C)CO2)=C(C)N1` (stereo unspecified), for which the carcinogen call was “inactive; negative” (Species: MOUSE, Strain/Sex: B6C3F1/FEMALE, Route: ORAL, Dose: 0, 500, 1600, 5000 PPM IN FEED FOR 104 WK (STUDY DURATION: 104 WK), Dose: 0, 500, 1600, 5000 PPM IN FEED FOR 104 WK (STUDY DURATION: 104 WK)); “inactive; negative” (Species: MOUSE, Strain/Sex: B6C3F1/MALE, Route: ORAL, Dose: 0, 500, 1600, 5000 PPM IN FEED FOR 104 WK (STUDY DURATION: 104 WK), Dose: 0, 500, 1600, 5000 PPM IN FEED FOR 104 WK (STUDY DURATION: 104 WK)); “inactive; negative” (Species: RAT, Strain/Sex: F344/FEMALE, Route: ORAL, Dose: 0, 400, 1200, 3600 PPM IN FEED FOR 104 WK (STUDY DURATION: 104 WK), Dose: 0, 400, 1200, 3600 PPM IN FEED FOR 104 WK (STUDY DURATION: 104 WK)); “inactive; negative” (Species: RAT, Strain/Sex: F344/MALE, Route: ORAL, Dose: 0, 400, 1200, 3600 PPM IN FEED FOR 104 WK (STUDY DURATION: 104 WK), Dose: 0, 400, 1200, 3600 PPM IN FEED FOR 104 WK (STUDY DURATION: 104 WK)).

Regarding `CCC(C)(CC)c1cc(NC(=O)c2c(OC)cccc2OC)on1`, the carcinogen call is, setting by setting: (Species: Mouse, Strain/Sex: B6C3F1/Male (60/Group), Route: Oral, Dose: 0, 100, 1000, 12,500 ppm of 85% isoxaben (plus 10.5% closely related isomers) in diet for 2 yr, study duration 2 yr, Dose: 0, 100, 1000, 12,500 ppm of 85% isoxaben (plus 10.5% closely related isomers) in diet for 2 yr, study duration 2 yr, Tumor Site: Type of Lesion: Liver: Hepatocellular adenomas (increased incidence and multiplicity at 12,500 ppm)) “active; positive”; (Species: Rat, Strain/Sex: Fischer 344/Female (60/Group), Route: Oral, Dose: 0, 125, 1250, 12,500 ppm of 85% isoxaben (plus 10.5% closely related isomers) in diet for 2 yr, study duration 2 yr, Dose: 0, 125, 1250, 12,500 ppm of 85% isoxaben (plus 10.5% closely related isomers) in diet for 2 yr, study duration 2 yr) “inactive; negative”; (Species: Rat, Strain/Sex: Fischer 344/Male (60/Group), Route: Oral, Dose: 0, 125, 1250, 12,500 ppm of 85% isoxaben (plus 10.5% closely related isomers) in diet for 2 yr, study duration 2 yr, Dose: 0, 125, 1250, 12,500 ppm of 85% isoxaben (plus 10.5% closely related isomers) in diet for 2 yr, study duration 2 yr, Tumor Site: Type of Lesion: Adrenal gland: pheochromocytoma (highest dose)) “active; positive”.

In the case of `c1ccc(Nc2ccc(Nc3ccccc3)cc2)cc1`, the carcinogen call was “inactive; negative” (Species: RAT, Strain/Sex: F344/FEMALE, Route: ORAL, Dose: 0, 0.5, 2% IN DIET FOR 104 WK (STUDY DURATION: 112 WK), Dose: 0, 0.5, 2% IN DIET FOR 104 WK (STUDY DURATION: 112 WK)) and “inactive; negative” (Species: RAT, Strain/Sex: F344/MALE, Route: ORAL, Dose: 0, 0.5, 2% IN DIET FOR 104 WK (STUDY DURATION: 112 WK), Dose: 0, 0.5, 2% IN DIET FOR 104 WK (STUDY DURATION: 112 WK)).

Consider `NCl`, for which the carcinogen call reads like this: (Species: MOUSE, Strain/Sex: B6C3F1/FEMALE, Route: ORAL, Dose: 0, 50, 100, 200 PPM IN BUFFERED, CHARCOAL-FILTERED, DEIONIZED WATER FOR 104 WK (STUDY DURATION: 2 YR), Dose: 0, 50, 100, 200 PPM IN BUFFERED, CHARCOAL-FILTERED, DEIONIZED WATER FOR 104 WK (STUDY DURATION: 2 YR)) “inactive; negative”; (Species: MOUSE, Strain/Sex: B6C3F1/MALE, Route: ORAL, Dose: 0, 50, 100, 200 PPM IN BUFFERED, CHARCOAL-FILTERED, DEIONIZED WATER FOR 104 WK (STUDY DURATION: 2 YR), Dose: 0, 50, 100, 200 PPM IN BUFFERED, CHARCOAL-FILTERED, DEIONIZED WATER FOR 104 WK (STUDY DURATION: 2 YR)) “inactive; negative”; (Species: RAT, Strain/Sex: F344/MALE, Route: ORAL, Dose: 0, 50, 100, 200 PPM IN BUFFERED, CHARCOAL-FILTERED, DEIONIZED WATER FOR 103 WK (STUDY DURATION: 2 YR), Dose: 0, 50, 100, 200 PPM IN BUFFERED, CHARCOAL-FILTERED, DEIONIZED WATER FOR 103 WK (STUDY DURATION: 2 YR)) “inactive; negative”.

In the case of `Nc1cc2c3ccccc3ccc2c2ccccc12`, the carcinogen call runs as follows: (Species: MOUSE, Strain/Sex: SWISS/FEMALE, Route: INTRAPERITONEAL, Dose: 0, 100 NMOL (TOTAL DOSE) 1/7, 2/7 AND 4/7 ADMINISTERED ON DAYS 1, 8 AND 15 OF LIFE RESPECTIVELY (STUDY DURATION: 32 WK)) “inactive; negative”; (Species: MOUSE, Strain/Sex: SWISS/MALE, Route: INTRAPERITONEAL, Dose: 0, 100 NMOL (TOTAL DOSE) 1/7, 2/7 AND 4/7 ADMINISTERED ON DAYS 1, 8 AND 15 OF LIFE RESPECTIVELY (STUDY DURATION: 32 WK)) “inactive; negative”.

As to `CCCN(CC(C)=O)N=O`, the carcinogen call by setting is: (Species: HAMSTER, Strain/Sex: SYRIAN/MALE,FEMALE, Route: SUBCUTANEOUS, Dose: 50-200 MG/KG 1/WK FOR LIFE, Tumor Site: Type of Lesion: RESPIRATORY TRACT, LIVER, KIDNEY, Tumor Site: Type of Lesion: RESPIRATORY TRACT, LIVER, KIDNEY) “active; positive”; (Species: MOUSE, Strain/Sex: NMRI/FEMALE, Route: SUBCUTANEOUS, Dose: 0.05, 0.1, 0.2% OF 603 MG/KG IN SALINE 1/WK FOR LIFE, Dose: 0.05, 0.1, 0.2% OF 603 MG/KG IN SALINE 1/WK FOR LIFE, Tumor Site: Type of Lesion: LIVER: HEMANGIOENDOTHELIAL SARCOMA, NASAL CAVITY: PAPILLOMA, ADENOCARCINOMA, NASAL TURBINATES: PAPILLOMA, ADENOCARCINOMA, Tumor Site: Type of Lesion: LIVER: HEMANGIOENDOTHELIAL SARCOMA, NASAL CAVITY: PAPILLOMA, ADENOCARCINOMA, NASAL TURBINATES: PAPILLOMA, ADENOCARCINOMA) “active; positive”; (Species: RAT, Strain/Sex: SPRAGUE-DAWLEY/MALE,FEMALE, Route: SUBCUTANEOUS, Dose: 0.12, 0.42, 0.85 MG/KG 1/WK FOR LIFE, Dose: 0.12, 0.42, 0.85 MG/KG 1/WK FOR LIFE, Tumor Site: Type of Lesion: LIVER: HEPATOMA, CARCINOMA) “active; positive”.
